Drawing on patent publication US12686668B2, “Leukotriene synthesis inhibitors” (Naegis Pharmaceuticals Inc., priority 2019, dated 2026), this text covers inhibition and IC50 for two compounds.

Test [1] concerns the target T1, recombinant human leukotriene A4 hydrolase enzyme (Homo sapiens, UniProt P09960).
T1 construct: purchased Cayman Chemical 10007817
T1 sequence (P09960 1-611): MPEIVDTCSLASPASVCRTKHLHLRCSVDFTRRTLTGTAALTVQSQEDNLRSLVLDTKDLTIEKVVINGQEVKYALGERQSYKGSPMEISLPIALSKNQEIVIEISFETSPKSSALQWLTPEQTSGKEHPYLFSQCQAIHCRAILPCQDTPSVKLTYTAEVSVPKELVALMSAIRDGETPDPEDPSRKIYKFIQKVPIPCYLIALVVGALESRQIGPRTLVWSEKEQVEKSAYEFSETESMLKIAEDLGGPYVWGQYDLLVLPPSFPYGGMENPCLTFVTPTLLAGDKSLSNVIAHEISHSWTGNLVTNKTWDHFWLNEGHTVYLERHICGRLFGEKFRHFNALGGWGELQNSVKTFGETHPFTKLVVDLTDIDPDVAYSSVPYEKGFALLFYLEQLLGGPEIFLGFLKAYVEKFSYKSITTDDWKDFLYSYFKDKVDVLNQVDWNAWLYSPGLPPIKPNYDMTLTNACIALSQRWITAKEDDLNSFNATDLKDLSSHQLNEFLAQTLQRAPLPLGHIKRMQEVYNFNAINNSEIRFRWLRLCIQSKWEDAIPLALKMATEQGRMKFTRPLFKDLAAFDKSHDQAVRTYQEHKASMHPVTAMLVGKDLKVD
Description: Amino-peptidase assay, alanine-4-nitroanalide. Type of test: biochemical. Conditions: negative values = augmented peptidase activity, read-out: % Inhibition aminopeptidase-Alanine-4-nitroanalide activity of LTA4H (3 μM). The procedure, abridged: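 Compounds pre-incubated in the dark with recombinant human LTA4H (0.5 μg) in 50 mM Tris-HCl, 100 mM KCl; reaction started with alanine-4-nitroanilide (6 mM solution). Aminopeptidase rate followed as A405 from 4-nitroaniline, referenced to a standard; inhibition calculated versus controls, with negative values indicating augmented activity.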

The subject of test [2] is LTB4 production in MC/9 cells. Description: MC/9 HPLC assay, inhibition of LTB4 production. The test is classed as cell-based. Conditions: Mus musculus. The procedure, abridged: (§1)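 MC/9 cells (3×10^6 in HBSS) pre-incubated 30 min with compound, then stimulated 20 min at room temperature with 1 μM A23187. After methanol quench and C18 solid-phase extraction, LTB4 and LTC4 quantified by HPLC against reference standards; inhibition relative to control samples.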

In test [3] the test system is LTC4 production in MC/9 cells. Description: MC/9 HPLC assay, inhibition of LTC4 production. The test is classed as cell-based. Conditions: Mus musculus; for inhibition at 3 µM: MC9, 3 μM, A23187 stimulated. The procedure, abridged:
as §1

Test [4] has as its system LTB4 production in porcine or human whole blood. Description: Whole blood HPLC assay, inhibition of LTB4 production. The test is classed as cell-based. Conditions: 5 point curve, porcine or human whole blood (not specified). The procedure, abridged: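 Porcine or human whole blood was pre-incubated 30 min with compound, then stimulated 20 min at room temperature with 20 μM A23187 (porcine blood also received 20 μM arachidonic acid). Plasma LTB4 was extracted on C18 and quantified by HPLC against reference standards. IC50 from a 5-point curve, with inhibition relative to controls.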

[5] abbreviates: MC9, Table 2 column 4, no concentration in head (1 μM according to b732), read-out: % Inhibition LTB4.
Where [6] appears, read: MC9, Table 2 column 3, no concentration in head (1 μM according to b732), read-out: % Inhibition LTC4.

Where two headings read alike, the source gives them in different places. A value given as a limit tells only on which side of the number the result lay.

As for `CCC(O)(CCc1ccc(Oc2nc3c(SC)cccc3s2)c(OC)c1)C(F)(F)F` (stereo not drawn) [Compound 104, 1-{3-methoxy-4-[(4-methylsulfanyl-1,3-benzothiazol-2-yl)oxy]phenyl}-3-(trifluoromethyl)pentan-3-ol], the inhibition – broadly, the relative decrease from the control value, in per cent – at 3 µM in test [1] is -50 to 100%; in test [3], above 90%. The inhibition at 1 µM is 90% in test [2] (MC9, 1 μM, read-out: % inhibition LTB4 (1 μM)); above 90% in test [2] (setting [5]); 90% in test [3] (MC9, 1 μM, read-out: % inhibition LTC4 (1 μM)); above 90% in test [3] (setting [6]). The half-maximal inhibitory concentration (IC50) – broadly, the concentration that inhibits the measured activity by half – in test [4] is 100 to 1000 nM.

On to `CC(O)(CCc1ccc(OCc2ccc3ccccc3n2)cc1)C(F)(F)F` (stereo not drawn) [Compound 183, 1,1,1-trifluoro-2-methyl-4-[4-(quinolin-2-ylmethoxy)phenyl]butan-2-ol], for which the inhibition at 3 µM was above 75% in test [1] and above 90% in test [3]. Moreover, the inhibition at 1 µM in test [2] (setting [5]) and in test [3] (setting [6]) was above 90% throughout. Further, the IC50 in test [4] was in the range of 100 to 1000 nM.
